Among the data in PMC549391 (Nucleic Acids Research, 2005) are IC50 values, retold here.

This test addresses T1, ribonuclease III (RNase III) (Escherichia coli, UniProt P0A7Y0).
T1 sequence (P0A7Y0 1-226): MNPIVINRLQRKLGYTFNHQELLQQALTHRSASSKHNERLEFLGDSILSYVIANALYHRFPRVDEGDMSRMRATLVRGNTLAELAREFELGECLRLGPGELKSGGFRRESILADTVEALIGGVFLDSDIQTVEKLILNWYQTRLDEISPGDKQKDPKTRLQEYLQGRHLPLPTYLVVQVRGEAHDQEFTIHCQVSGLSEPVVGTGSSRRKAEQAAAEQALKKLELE
Nature of the test: cleavage of […]-labeled R1.[…] RNA by purified RNase III, gel assay, […] Mg2+. The format is biochemical.

`O=C1Cc2ccccc2C(=O)N1O` [compound 1, 2-hydroxy-4H-isoquinoline-1,3-dione] had an IC50 of 14 ± 2 µM.

For orientation: IC50 means the point on the concentration scale where inhibition reaches its midpoint. Higher therefore signals a need for much substance.
